Patent publication US10479979B2, “Method for making and using cold atmospheric plasma stimulated media for cancer treatment” (U.S. Patent Innovations, LLC, priority 2015, dated 2019)

Experiments:
[1] = tested on: U87 cells; assay: MTT cell viability of U87 cells cultured 72 hours in test media; assay type: cell-based, Human
Description: (§1) As a preliminary step, cancer cells are cultured overnight. For example, the cancer cells may be cultured in an incubator under the standard conditions (a 37° C., 5% (v/v) CO2 and humidified environment) for […]. MTT (3-(4,5-dimethylthiazol-2-yl)-2,5-diphenyltetrazolium bromide), a colorimetric assay (Sigma-Aldrich) was harnessed to qualify the cell viability. The initial media which had been used to culture cancer cells overnight may be discarded prior to treatment with CAPs media. […]
(§2) For each cell line, the protocol was identical. […] Ultimately, according to the standard method, the viability of U87 cells were qualified by MTT test and were read by a H1 microplate reader (Hybrid Technology) at the absorbance of 570 nm.
(§3) The protocols for three cell lines were identical. […] Ultimately, the cell viability was measured.
(§4) The protocol for three cell lines was identical. […] Second, we respectively prepared 2.4 mM specific amino acids rich DMEM by dissolving specific quantities of amino acids powers (Sigma-Aldrich) in DMEM (1% ABS). […]

[2] = tested on: MCF-7 cells; assay: MTT cell viability of MCF-7 cells cultured 72 hours in test media; assay type: cell-based, Human
Description: as §1, §2, §3, §4

[3] = H2O2 in complete media, nominal 1-100 μM, 72 hours

Row | Compound | resistance to H2O2 rich media [1, 3] | resistance to H2O2 rich media [2, 3] | growth of cancer cells in untreated amino acid rich DMEM (control group, toxicity) ([1]; 2.4 mM, no CAP treatment) | growth of cancer cells in untreated amino acid rich DMEM (control group, toxicity) ([2]; 2.4 mM, no CAP treatment)
1 | OO [H2O2, hydrogen peroxide] | stronger resistance to H2O2 than MDA-MB-231 cells | stronger resistance to H2O2 than MDA-MB-231 cells | – | –
2 | N[C@@H](Cc1c[nH]c2ccccc12)C(=O)O [tryptophan] | – | – | strong resistance to growth of cancer cells | strong resistance to growth of cancer cells
